The values below come from article PMC2843921 (ACS chemical neuroscience, 2010).

The target of assay [1] is T1, human μ opioid receptor (Homo sapiens, UniProt P35372). The assay is described as follows: Stimulation of [35S]GTPγS binding, μ. The following applies: for Emax: read-out: Agonism μ Emax (%). The class given is biochemical. On the technique in general: GTPγS is a poorly hydrolysed GTP analogue; its binding reports G protein activation.
Assay [2] concerns the target T2, human δ opioid receptor (Homo sapiens, UniProt P41143). Nature of the assay: Stimulation of [35S]GTPγS binding, δ. The class given is biochemical. The following applies: for Emax: read-out: Agonism δ Emax (%).
For assay [3], the target named is T1, human μ opioid receptor. Nature of the assay: Inhibition of DAMGO-stimulated [35S]GTPγS binding, μ. The class given is biochemical. The following applies: for Antagonism μ Imax (%): in presence of 200 nM DAMGO, NI = No inhibition.
In assay [4] the target is T2, human δ opioid receptor. Nature of the assay: Inhibition of SNC 80-stimulated [35S]GTPγS binding, δ. The class given is biochemical. Conditions: in presence of 10 nM SNC 80; NI = No inhibition.
A further assay relates to MVD. Conditions: read-out: MVD EC50; cited from earlier work.
Another assay concerns GPI. The following applies: read-out: GPI EC50; cited from earlier work.

Counter-ions that a name gives are not always drawn. Non-standard residues stand in square brackets, D forms with d. Residues, ends and D or L forms follow the SMILES beside them. *: point of attachment. Dmt = Cc1cc(O)cc(C)c1C[C@H](N)C(=O)O; dTic = O=C(O)[C@H]1Cc2ccccc2CN1; NHBn = c1ccc(CN*)cc1

T2 sequence (P41143 whole entry): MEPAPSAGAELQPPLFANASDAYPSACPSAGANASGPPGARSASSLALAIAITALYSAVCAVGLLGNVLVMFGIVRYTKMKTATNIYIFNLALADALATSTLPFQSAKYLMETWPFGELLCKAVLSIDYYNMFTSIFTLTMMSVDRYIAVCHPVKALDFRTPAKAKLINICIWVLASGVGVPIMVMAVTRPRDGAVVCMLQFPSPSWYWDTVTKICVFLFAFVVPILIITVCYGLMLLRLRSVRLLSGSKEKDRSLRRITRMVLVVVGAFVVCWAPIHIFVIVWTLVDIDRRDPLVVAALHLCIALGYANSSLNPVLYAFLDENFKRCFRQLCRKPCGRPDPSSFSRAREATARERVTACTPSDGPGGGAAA
T1 sequence (P35372 whole entry): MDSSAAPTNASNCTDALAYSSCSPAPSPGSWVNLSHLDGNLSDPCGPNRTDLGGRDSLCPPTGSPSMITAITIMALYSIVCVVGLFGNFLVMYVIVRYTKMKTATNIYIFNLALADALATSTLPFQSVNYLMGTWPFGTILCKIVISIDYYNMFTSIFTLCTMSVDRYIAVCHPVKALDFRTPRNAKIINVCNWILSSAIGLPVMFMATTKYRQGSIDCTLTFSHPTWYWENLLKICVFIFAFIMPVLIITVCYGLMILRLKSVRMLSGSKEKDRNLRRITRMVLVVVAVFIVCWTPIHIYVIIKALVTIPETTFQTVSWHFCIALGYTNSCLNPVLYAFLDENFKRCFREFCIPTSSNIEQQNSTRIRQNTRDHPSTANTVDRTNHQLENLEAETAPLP

In general, EC50 refers to the concentration at which the effect is half-maximal. For orientation: Emax means the greatest response seen or fitted, relative to the assay's reference. With `Cc1cc(O)cc(C)c1C[C@H](N)C(=O)N1Cc2ccccc2C[C@@H]1C(=O)NCC(=O)NCc1ccccc1` [Compound 2, TFA·H-Dmt-D-Tic-Gly-NH-Bzl] (H-[Dmt]-[dTic]-Gly-NHBn), on human μ opioid receptor [1], the EC50 was determined as 0.9 ± 0.032 nM and the Emax worked out at 92 ± 4%. Further, on human δ opioid receptor [2], the response was half-maximal at 2.8 ± 0.6 nM (EC50) and the Emax was determined as 44 ± 6.1%.
For the compound `Cc1cc(O)cc(C)c1C[C@H](N)C(=O)N1Cc2ccccc2C[C@H]1C(=O)NCC(=O)NCc1ccc(Cl)cc1` [Compound 3, TFA·H-Dmt-Tic-Gly-NH-Bzl(pCl)], on human μ opioid receptor [3], the “Antagonism μ Imax (%)” value was found to be 43±3.3%. Besides, the EC50 at human μ opioid receptor [1] turned out to be 33 ± 2.9 nM. The figures for the Emax on human μ opioid receptor [1] and on human δ opioid receptor [2] were 52 ± 5.5% and 4.5 ± 0.85%, respectively. Besides, on human δ opioid receptor [4], the “Antagonism δ Imax (%)” value was found to be 93±2.2%.
The term inhibition denotes the share of the control response that was lost under treatment. Turning to `Cc1ccc(CNC(=O)CNC(=O)[C@@H]2Cc3ccccc3CN2C(=O)[C@@H](N)Cc2c(C)cc(O)cc2C)cc1` [Compound 4, TFA·H-Dmt-Tic-Gly-NH-Bzl(pMe)], on human μ opioid receptor [3] (read-out: Antagonism μ inhibition of DAMGO-stimulated [35S]GTPγS binding (%)), the inhibition at 25 µM was found to be 65 ± 1.1%. The compound also came in with a 50% effective concentration (EC50) at human μ opioid receptor [1] of 63 ± 3.5 nM. Also, the Emax on human μ opioid receptor [1] turned out to be 34 ± 6.4%; on human δ opioid receptor [2], 0.4 ± 1.43%. The “Antagonism δ Imax (%)” value at human δ opioid receptor [4] turned out to be 86±5.0%.
`Cc1cc(O)cc(C)c1C[C@H](N)C(=O)N1Cc2ccccc2C[C@H]1C(=O)NCC(=O)NCc1ccc([N+](=O)[O-])cc1` [Compound 5, TFA·H-Dmt-Tic-Gly-NH-Bzl(pNO2)]: the “Antagonism μ Imax (%)” value on human μ opioid receptor [3] is given as 74±6.9%. Moreover, at human μ opioid receptor [1], the EC50 was 61 ± 15 nM and the Emax was 16 ± 2.5%. Besides, the “Antagonism δ Imax (%)” value at human δ opioid receptor [4] came out at 79±3.8%. Further, at human δ opioid receptor [2], the Emax amounted to 3.1 ± 0.43%.
`Cc1cc(O)cc(C)c1C[C@H](N)C(=O)N1Cc2ccccc2C[C@H]1C(=O)NCC(=O)NCc1ccc(N)cc1` [Compound 6, 2TFA·H-Dmt-Tic-Gly-NH-Bzl(pNH2)]: the “Antagonism δ Imax (%)” value on human δ opioid receptor [4] was determined as 78±2.7%. The Emax at human δ opioid receptor [2] came to 13 ± 1%.
`Cc1cc(O)cc(C)c1C[C@H](N)C(=O)N1Cc2ccccc2C[C@H]1C(=O)NCC(=O)NC(c1ccccc1)c1ccccc1` [Compound 7, TFA·H-Dmt-Tic-Gly-NH-Benzhydryl]: at human μ opioid receptor [1], the EC50 is 4.8 ± 0.16 nM and the Emax stood at 45 ± 1.2%. For the same compound, on human δ opioid receptor [4], the “Antagonism δ Imax (%)” value is 100±7.4%. Moreover, the Emax on human δ opioid receptor [2] is -1.9 ± 0.17%.
As for `Cc1cc(O)cc(C)c1C[C@H](N)C(=O)N1Cc2ccccc2C[C@H]1C(=O)NCC(=O)N1CCc2ccccc2C1` [Compound 8, TFA·H-Dmt-Tic-Gly-1,2,3,4-tetrahydroisoquinoline], the Emax was 43 ± 6.6% at human μ opioid receptor [1] and -1.4 ± 0.14% at human δ opioid receptor [2]. For the same compound, the “Antagonism δ Imax (%)” value on human δ opioid receptor [4] turned out to be 99±3.3%.
Consider H-Dmt-Tic-Gly-Ph, for which the EC50 was 3.02 nM in the assay with MVD and 2.57 nM with GPI.
